# In patent publication US20100143507A1, “CARBOXYLIC ACID INHIBITORS OF HISTONE DEACETYLASE, GABA TRANSAMINASE AND SODIUM CHANNEL” (AUSPEX PHARMACEUTICALS, INC., priority 2008, published 2010):
# Experiment: In vitro liver microsomal stability assay
# Format: in vitro ADME
# Details: 1 mg per mL liver microsome protein, NADPH-generating system, 1 μM test compound, 37° C., 0-60 minutes, LC/MS/MS
# Procedure: Liver microsomal stability assays were conducted with 1 mg per mL liver microsome protein with an NADPH-generating system (2.2 mM NADPH, 25.6 mM glucose 6-phosphate, 6 units per mL glucose 6-phosphate dehydrogenase and 3.3 mM magnesium chloride) in 2% sodium bicarbonate. Test compounds were prepared as solutions in 20% acetonitrile-water and added to the assay mixture (final assay concentration 1 μM) and incubated at 37° C. Final concentration of acetonitrile in the assay should be <1%. Aliquots (50 μL) were taken out at times 0, 15, 30, 45, and 60 minutes, and diluted with ice cold acetonitrile (200 μL) to stop the reactions. Samples were centrifuged at 12,000 RPM for 10 minutes to precipitate proteins. Supernatants were transferred to microcentrifuge tubes and stored for LC/MS/MS analysis of the degradation half-life of the test compounds. […] In certain embodiments, the increase in degradation half-life is at least 5%; at least 10%; or at least 15%.
compound,measurement,value
[2H]C([2H])([2H])C([2H])([2H])C([2H])([2H])C([2H])(C(=O)O)C([2H])([2H])C([2H])([2H])C([2H])([2H])[2H] [valproic acid-d15],degradation half-life as compared to the non-isotopically enriched drug,increased degradation half-life
